These results are taken from ChEMBL document CHEMBL6153154, “Novel Carbocyclic Phenylpyrrolidinone Urea Compounds as FPR2 Agonists for Treating Atherosclerosis and Heart Failure” (ACS Med Chem Lett, 2025).

pEC50: −log10 of the molar value.

The target of this assay is T1, N-formyl peptide receptor 2 (Homo sapiens, UniProt P25090).
T1 sequence (P25090 whole entry): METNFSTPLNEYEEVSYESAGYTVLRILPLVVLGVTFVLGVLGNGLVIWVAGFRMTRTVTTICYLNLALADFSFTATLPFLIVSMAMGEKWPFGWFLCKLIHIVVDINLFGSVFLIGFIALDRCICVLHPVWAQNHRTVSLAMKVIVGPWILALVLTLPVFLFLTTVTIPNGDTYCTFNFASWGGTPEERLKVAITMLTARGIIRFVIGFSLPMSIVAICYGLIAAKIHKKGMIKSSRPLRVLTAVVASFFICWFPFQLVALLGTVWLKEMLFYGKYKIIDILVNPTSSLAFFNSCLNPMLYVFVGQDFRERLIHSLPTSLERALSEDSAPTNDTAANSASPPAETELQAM
Put plainly: Agonist activity at human FPR2 expressed in CHO cells assessed as forskolin-induced cAMP level incubated for 30 mins in presence of IBMX by HTRF HiRange cAMP assay. Format: functional, cell-based. For orientation: Changes in cAMP serve as a functional read-out for many G protein-coupled receptors.
Regarding `CC(=O)NCC1(c2ccc(N3CC[C@@H](NC(=O)Nc4ccc(Cl)cc4F)C3=O)c(F)c2F)CC1`, the negative logarithm of the EC50 (pEC50) was 9.39.
For `CC(=O)N(C)CC1(c2ccc(N3CC[C@@H](NC(=O)Nc4ccc(C(F)(F)F)cc4F)C3=O)c(F)c2F)CC1` the value was 10.00; for `O=C(Nc1ccc(C(F)(F)F)cc1F)N[C@@H]1CCN(c2ccc(C3(CN4CCCC4=O)CC3)c(F)c2F)C1=O`, 9.64; for `CC(C)S(=O)(=O)CC1(c2ccc(N3CC[C@@H](NC(=O)Nc4ccc(Cl)cc4F)C3=O)c(F)c2F)CC1`, 9.31.
With `CP(C)(=O)CC1(c2ccc(N3CC[C@@H](NC(=O)Nc4ccc(C(F)(F)F)cc4F)C3=O)c(F)c2F)CCCC1`, the pEC50 is 9.32.
Regarding `O=C(Nc1ccc(Cl)cc1F)N[C@@H]1CCN(c2ccc(C3(CN4CCCC4=O)CC3)c(F)c2F)C1=O`, the pEC50 is 9.49.

What is called pEC50 is the negative decadic logarithm of the EC50, by convention in mol/L.
